Legend:
[1] = Fluorescence, ROS and singlet oxygen generation, cell-free
Solubility of DTPP = type: physicochemical
H22 tumor = assay: In vivo fluorescence imaging; details: tumor bearing mice; i.v.; before laser irradiation, within 8 h
Method: Animal experiments were conducted based on the guidelines for laboratory animals established by the Huazhong Agricultural University. In vivo imaging started when tumor volume approximated 200 mm^3. For photothermal imaging 200 μL AuHNRs-DTPP was intravenously injected into the mice, and the equal volume of PBS buffer was taken as the control. Infrared thermal images were recorded by using a FLIR E85 camera under 1064 nm laser irradiation at a power density of 0.69 W·cm^-2. In vivo fluorescence imaging was collected by a Maestro in vivo imaging system. The tumor bearing mice were intravenously administrated with 200 μL AuHNRs-DTPP (1 g·L^-1) or free DTPP (30 mg·L^-1) solution. Then the mice were anesthetized and imaged at pre-set time. It should be noted that mice received 1064 nm laser irradiation (10 min, 0.69 W·cm^-2) at the 8th h post-injection.

HeLa cells = assay: MTT cytotoxicity assay; type: cell-based; details: 10 ppm; cells treated with AuHNRs-DTPP and laser
Method: The in vitro cytotoxicity of AuHNRs-DTPP nanocarrier against HeLa cells were studied by standard MTT assay. In brief, HeLa cells were seeded on 96-well plates with a density of 5000 cells per well. When the cell density came to 80%, the medium was removed and various concentrations of AuHNRs-DTPP nanocarrier in DMEM with 10% FBS were added. After incubation for 6 h, the medium was replaced by 200 μL of fresh medium. For none-treated group or single laser treated group, cells received corresponding treatment and then further incubated for 48 h. And for combined treatment group, cells received 1064 nm laser irradiation and incubated for 2 h. After that, cells received laser irradiation (633 nm) and then further incubated for 48 h. Then, the standard MTT assay was conducted to determine the cell viability. And for COS-7, same operation process was taken.

Row | solubility in DI water (Solubility of DTPP; DI water) | solubility in PBS (Solubility of DTPP; PBS) | Molecule | singlet oxygen ESR signal ([1]; treated with laser) | singlet oxygen ESR signal ([1]; without laser irradiation) | in vivo fluorescence signal (H22 tumor) | effect on cell viability as ROS scavenger (HeLa cells)
1 | almost insoluble | good solubility | PpIX-PEG8-GGK(TPP)GRDEVDGC [DTPP] | obvious ESR signal | no ESR signal | fluorescence signal appeared all over the body | 
2 |  |  | O=C1O[C@H]([C@@H](O)CO)C(O)=C1O [Vitamin C] |  |  |  | significantly improve the cell viability

Source: article PMC6691385, “Au Hollow Nanorods-Chimeric Peptide Nanocarrier for NIR-II Photothermal Therapy and Real-time Apoptosis Imaging for Tumor Theranostics” (Theranostics, 2019)
